Tests used:
[1] = target: human full-length recombinant HPK1 (Homo sapiens (Human), UniProt Q92918); assay: HPK1 biochemical enzyme assay, microfluidic mobility shift assay (MSA); conditions: mobility shift assay; 75 μM ATP; Morrison equation, tight-binding competitive inhibition; read-out: HPK1 Enzyme Assay_Ki
Description: HPK1 enzyme inhibition was measured using a microfluidic mobility shift assay (MSA). […] The reactions were conducted for 60 min at 37° C., stopped by the addition of 50 μL of 0.015 M EDTA, pH 8, and the extent of reactions (˜15-20% conversion with no inhibitor) was determined after electrophoretic separation of the fluorescently labeled peptide substrate and phosphorylated product on an LabChip EZ Reader II (PerkinElmer, Inc., Waltham, Mass.). […]

[2] = tested on: phospho-SLP-76 (Ser376) in Jurkat cells; assay: Phospho-SLP-76 (Ser376) Homogeneous Time Resolved Fluorescence (HTRF) assay in Jurkat cells; assay type: cell-based; conditions: Homo sapiens, 30 min pre-treatment, anti-CD3 stimulation 15 min, HTRF, read-out: SLP76 Assay_IC50
Description: Jurkat cells were seeded at 90,000 cells/well in 90 uL of RPMI1640 growth medium containing 10% FBS and incubated at 37° C. with 5% CO2 overnight. The following day, compounds were serially diluted from a 10 mM top dose for an 11-point 3 fold dilution curve in DMSO. Compounds were intermediately diluted 1:100 into growth media prior to diluting 1:10 on cells for final concentration 10 μM to 0.1 nM in 0.1% DMSO. After 30 minutes pre-treatment with compounds, the cells were stimulated using 200 μg/mL of F(ab)2 complexed anti-CD3 (clone UCTH1) for 15 min at 37° C. with 5% CO2. Stimulation was stopped with ice cold PBS and cells were harvested by centrifugation before lysis in Cisbio lysis buffer (Cisbio, Bedford, Mass.). Lysates were transferred to white, low-volume plates containing anti-phospho-SLP-76-Cryptate plus anti-phospho-SLP-76-d2 HTRF antibodies and incubated overnight at room temperature protected from light according to the manufacturer's protocol (Cisbio, Bedford, Mass.). HTRF was measured on a Perkin Elmer Envision and IC50 values were calculated by concentration-response curve fitting utilizing four-parameter nonlinear regression analyses.

Sequence of human full-length recombinant HPK1 (Q92918 whole entry): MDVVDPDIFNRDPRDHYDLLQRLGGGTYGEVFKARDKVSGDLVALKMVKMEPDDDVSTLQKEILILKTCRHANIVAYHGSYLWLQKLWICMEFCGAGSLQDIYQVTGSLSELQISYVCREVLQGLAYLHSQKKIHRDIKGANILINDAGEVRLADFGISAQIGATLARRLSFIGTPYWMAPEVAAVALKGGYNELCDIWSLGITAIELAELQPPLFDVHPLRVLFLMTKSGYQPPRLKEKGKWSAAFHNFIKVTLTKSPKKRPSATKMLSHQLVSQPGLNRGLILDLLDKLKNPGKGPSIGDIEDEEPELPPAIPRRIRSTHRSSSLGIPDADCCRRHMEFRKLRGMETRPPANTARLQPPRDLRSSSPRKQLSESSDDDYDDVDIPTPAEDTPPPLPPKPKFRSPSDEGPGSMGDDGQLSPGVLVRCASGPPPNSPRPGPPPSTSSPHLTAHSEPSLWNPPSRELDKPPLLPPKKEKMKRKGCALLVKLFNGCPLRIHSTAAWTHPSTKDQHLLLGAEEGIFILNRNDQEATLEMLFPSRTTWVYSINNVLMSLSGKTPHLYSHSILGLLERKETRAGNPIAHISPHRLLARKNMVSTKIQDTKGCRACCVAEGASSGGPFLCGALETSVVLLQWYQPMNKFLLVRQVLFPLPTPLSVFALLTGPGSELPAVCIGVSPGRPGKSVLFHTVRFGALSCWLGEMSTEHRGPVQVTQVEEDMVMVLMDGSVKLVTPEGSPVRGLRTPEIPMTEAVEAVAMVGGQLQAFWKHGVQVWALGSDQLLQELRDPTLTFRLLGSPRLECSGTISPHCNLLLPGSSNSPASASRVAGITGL

Structure (SMILES)	Ki [1] [nM]	IC50 [2] [nM]
CCn1cnnc1-c1cccc(N2Cc3c(cc(N(C)C)nc3CNC)C2=O)n1 [Example 20, 6-(dimethylamino)-2-[6-(4-ethyl-4H-1,2,4-triazol-3-yl)pyridin-2-yl]-4-[(methylamino)methyl]-2,3-dihydro-1H-pyrrolo[3,4-c]pyridin-1-one]	2.8	158
CNCc1nc(N(C)C)cc2c1CN(c1cccc(-c3nncn3CC3CC3)n1)C2=O [Example 21, 2-{6-[4-(cyclopropylmethyl)-4H-1,2,4-triazol-3-yl]pyridin-2-yl}-6-(dimethylamino)-4-[(methylamino)methyl]-2,3-dihydro-1H-pyrrolo[3,4-c]pyridin-1-one]	0.62	245
CNCc1nc(N(C)C)cc2c1CN(c1ccc(F)c(-c3cn[nH]c3C(C)C)n1)C2=O [Example 22, 6-(dimethylamino)-2-{5-fluoro-6-[5-(propan-2-yl)-1H-pyrazol-4-yl]pyridin-2-yl}-4-[(methylamino)methyl]-2,3-dihydro-1H-pyrrolo[3,4-c]pyridin-1-one]	0.4	105
C[C@H]1COC(=O)N1c1cccc(N2Cc3c(cc(C4CC4)nc3CN)C2=O)n1 [Example 26, 4-(aminomethyl)-6-cyclopropyl-2-{6-[(4S)-4-methyl-2-oxo-1,3-oxazolidin-3-yl]pyridin-2-yl}-2,3-dihydro-1H-pyrrolo[3,4-c]pyridin-1-one]	0.9	439
CNCc1nc(N2[C@H](C)C[C@H]2C)cc2c1CN(c1cccc(-c3nncn3C(C)C)n1)C2=O [Example 28, 6-[(2R,4R)-2,4-dimethylazetidin-1-yl]-4-[(methylamino)methyl]-2-{6-[4-(propan-2-yl)-4H-1,2,4-triazol-3-yl]pyridin-2-yl}-2,3-dihydro-1H-pyrrolo[3,4-c]pyridin-1-one]	0.41	119
CNCc1nc(C(C)(C)C)cc2c1CN(c1cccc(-c3nncn3C(C)C)n1)C2=O [Example 29, 6-tert-butyl-4-[(methylamino)methyl]-2-{6-[4-(propan-2-yl)-4H-1,2,4-triazol-3-yl]pyridin-2-yl}-2,3-dihydro-1H-pyrrolo[3,4-c]pyridin-1-one]	3.2	396
CNCc1nc(C(C)C)cc2c1CN(c1cccc(-c3nncn3C(C)C)n1)C2=O [Example 30, 4-[(methylamino)methyl]-6-(propan-2-yl)-2-{6-[4-(propan-2-yl)-4H-1,2,4-triazol-3-yl]pyridin-2-yl}-2,3-dihydro-1H-pyrrolo[3,4-c]pyridin-1-one]	2.1	573
C[C@H]1COC(=O)N1c1cccc(N2Cc3c(cc(N(C)C)nc3CN)C2=O)n1 [Example 32, 4-(aminomethyl)-6-(dimethylamino)-2-{6-[(4S)-4-methyl-2-oxo-1,3-oxazolidin-3-yl]pyridin-2-yl}-2,3-dihydro-1H-pyrrolo[3,4-c]pyridin-1-one]	0.34	210
CNCc1nc(N2CCC2)cc2c1CN(c1cccc(N3C(=O)OC[C@@H]3C)n1)C2=O [Example 33, 6-(azetidin-1-yl)-4-[(methylamino)methyl]-2-{6-[(4S)-4-methyl-2-oxo-1,3-oxazolidin-3-yl]pyridin-2-yl}-2,3-dihydro-1H-pyrrolo[3,4-c]pyridin-1-one]	0.28	134
CC(C)n1cnnc1-c1cccc(N2Cc3c(cc(N4[C@H](C)C[C@@H]4C)nc3CN)C2=O)n1 [Example 34, 4-(aminomethyl)-6-[(2R,4S)-2,4-dimethylazetidin-1-yl]-2-{6-[4-(propan-2-yl)-4H-1,2,4-triazol-3-yl]pyridin-2-yl}-2,3-dihydro-1H-pyrrolo[3,4-c]pyridin-1-one]	1.32	379
CC(C)c1cnnn1-c1cccc(N2Cc3c(cc(N(C)C)nc3CN)C2=O)n1 [Example 35, 4-(aminomethyl)-6-(dimethylamino)-2-{6-[5-(propan-2-yl)-1H-1,2,3-triazol-1-yl]pyridin-2-yl}-2,3-dihydro-1H-pyrrolo[3,4-c]pyridin-1-one]	0.12	183
C[C@H]1COC(=O)N1c1cccc(N2Cc3c(cc(C(C)(C)C)nc3CN)C2=O)n1 [Example 36, 4-(aminomethyl)-6-tert-butyl-2-{6-[(4S)-4-methyl-2-oxo-1,3-oxazolidin-3-yl]pyridin-2-yl}-2,3-dihydro-1H-pyrrolo[3,4-c]pyridin-1-one]	5.1	1110
CNCc1nc(N(C)C)cc2c1CN(c1cccc(N3C(=O)OC[C@@H]3C(F)F)n1)C2=O [Example 37, 2-{6-[(4R)-4-(difluoromethyl)-2-oxo-1,3-oxazolidin-3-yl]pyridin-2-yl}-6-(dimethylamino)-4-[(methylamino)methyl]-2,3-dihydro-1H-pyrrolo[3,4-c]pyridin-1-one]	1.5	487
CCN(CC)c1cc2c(c(CN)n1)CN(c1cccc(-c3nncn3C(C)C)n1)C2=O [Example 38, 4-(aminomethyl)-6-(diethylamino)-2-{6-[4-(propan-2-yl)-4H-1,2,4-triazol-3-yl]pyridin-2-yl}-2,3-dihydro-1H-pyrrolo[3,4-c]pyridin-1-one]	0.38	147
CNCc1nc(C(C)(C)C)cc2c1CN(c1cccc(N3C(=O)OC[C@@H]3C)n1)C2=O [Example 39, 6-tert-butyl-4-[(methylamino)methyl]-2-{6-[(4S)-4-methyl-2-oxo-1,3-oxazolidin-3-yl]pyridin-2-yl}-2,3-dihydro-1H-pyrrolo[3,4-c]pyridin-1-one]	1.8	672
CNCc1nc(C2CC2)cc2c1CN(c1cccc(N3C(=O)OC[C@@H]3C)n1)C2=O [Example 40, 6-cyclopropyl-4-[(methylamino)methyl]-2-{6-[(4S)-4-methyl-2-oxo-1,3-oxazolidin-3-yl]pyridin-2-yl}-2,3-dihydro-1H-pyrrolo[3,4-c]pyridin-1-one]	0.81	137
CC(C)c1cc2c(c(CN)n1)CN(c1cccc(N3C(=O)OC[C@@H]3C)n1)C2=O [Example 41, 4-(aminomethyl)-2-{6-[(4S)-4-methyl-2-oxo-1,3-oxazolidin-3-yl]pyridin-2-yl}-6-(propan-2-yl)-2,3-dihydro-1H-pyrrolo[3,4-c]pyridin-1-one]	4.6	315
C[C@H]1COC(=O)N1c1cccc(N2Cc3c(cc(C4(C)CC4)nc3CN)C2=O)n1 [Example 42, 4-(aminomethyl)-6-(1-methylcyclopropyl)-2-{6-[(4S)-4-methyl-2-oxo-1,3-oxazolidin-3-yl]pyridin-2-yl}-2,3-dihydro-1H-pyrrolo[3,4-c]pyridin-1-one]	0.33	192
C[C@@H]1C[C@@H](C)N1c1cc2c(c(CN)n1)CN(c1cccc(N3C(=O)OC[C@@H]3C)n1)C2=O [Example 43, 4-(aminomethyl)-6-[(2R,4R)-2,4-dimethylazetidin-1-yl]-2-{6-[(4S)-4-methyl-2-oxo-1,3-oxazolidin-3-yl]pyridin-2-yl}-2,3-dihydro-1H-pyrrolo[3,4-c]pyridin-1-one]	1.92	561
C[C@H]1COC(=O)N1c1cccc(N2Cc3c(cc(N4CCC4)nc3CN)C2=O)n1 [Example 44, 4-(aminomethyl)-6-(azetidin-1-yl)-2-{6-[(4S)-4-methyl-2-oxo-1,3-oxazolidin-3-yl]pyridin-2-yl}-2,3-dihydro-1H-pyrrolo[3,4-c]pyridin-1-one]	0.4	244
CNCc1nc(N(C)C)cc2c1CN(c1cccc(N3C(=O)OC[C@@H]3CF)n1)C2=O [Example 45, 6-(dimethylamino)-2-{6-[(4R)-4-(fluoromethyl)-2-oxo-1,3-oxazolidin-3-yl]pyridin-2-yl}-4-[(methylamino)methyl]-2,3-dihydro-1H-pyrrolo[3,4-c]pyridin-1-one]	0.17	173
CCCn1cnnc1-c1cccc(N2Cc3c(cc(N(C)C)nc3CNC)C2=O)n1 [Example 46, 6-(dimethylamino)-4-[(methylamino)methyl]-2-[6-(4-propyl-4H-1,2,4-triazol-3-yl)pyridin-2-yl]-2,3-dihydro-1H-pyrrolo[3,4-c]pyridin-1-one]	0.14	94
CNCc1nc(C)cc2c1CN(c1cccc(-c3nncn3C(C)C)n1)C2=O [Example 47, 6-methyl-4-[(methylamino)methyl]-2-{6-[4-(propan-2-yl)-4H-1,2,4-triazol-3-yl]pyridin-2-yl}-2,3-dihydro-1H-pyrrolo[3,4-c]pyridin-1-one]	7.1	1520
CCN(C)c1cc2c(c(CNC)n1)CN(c1cccc(-c3nncn3C(C)C)n1)C2=O [Example 48, 6-[ethyl(methyl)amino]-4-[(methylamino)methyl]-2-{6-[4-(propan-2-yl)-4H-1,2,4-triazol-3-yl]pyridin-2-yl}-2,3-dihydro-1H-pyrrolo[3,4-c]pyridin-1-one]	0.14	94

From patent publication US11142525B2 (Pfizer Inc., priority 2018, dated 2021)
